The experiment concerns the target Cdk9/cyclinT1 (Homo sapiens, UniProt P50750). As to the kind of experiment: Cdk9/cyclinT1 kinase assay (IMAP or Alpha Screen protocol).

Molecules are shown by their SMILES.

Results on six molecules are retold here after patent publication US20120165306A1, “PYRAZINYLPYRIDINES USEFUL FOR THE TREATMENT OF PROLIFERATIVE DISEASES” (priority 2009, published 2012).

Chain of Cdk9/cyclinT1 (P50750 whole entry): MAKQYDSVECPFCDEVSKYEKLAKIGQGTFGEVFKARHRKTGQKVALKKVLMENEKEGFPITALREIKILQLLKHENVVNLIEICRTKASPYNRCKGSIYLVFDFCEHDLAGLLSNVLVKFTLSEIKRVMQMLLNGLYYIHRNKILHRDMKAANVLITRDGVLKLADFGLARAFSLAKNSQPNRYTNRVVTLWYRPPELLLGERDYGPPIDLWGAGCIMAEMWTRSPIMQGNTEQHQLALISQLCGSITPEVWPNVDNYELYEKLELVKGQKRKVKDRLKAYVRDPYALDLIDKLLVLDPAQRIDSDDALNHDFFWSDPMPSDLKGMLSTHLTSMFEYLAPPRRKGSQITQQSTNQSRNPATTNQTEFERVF
Chain of Cdk9/cyclinT1 (O60563 whole entry partner): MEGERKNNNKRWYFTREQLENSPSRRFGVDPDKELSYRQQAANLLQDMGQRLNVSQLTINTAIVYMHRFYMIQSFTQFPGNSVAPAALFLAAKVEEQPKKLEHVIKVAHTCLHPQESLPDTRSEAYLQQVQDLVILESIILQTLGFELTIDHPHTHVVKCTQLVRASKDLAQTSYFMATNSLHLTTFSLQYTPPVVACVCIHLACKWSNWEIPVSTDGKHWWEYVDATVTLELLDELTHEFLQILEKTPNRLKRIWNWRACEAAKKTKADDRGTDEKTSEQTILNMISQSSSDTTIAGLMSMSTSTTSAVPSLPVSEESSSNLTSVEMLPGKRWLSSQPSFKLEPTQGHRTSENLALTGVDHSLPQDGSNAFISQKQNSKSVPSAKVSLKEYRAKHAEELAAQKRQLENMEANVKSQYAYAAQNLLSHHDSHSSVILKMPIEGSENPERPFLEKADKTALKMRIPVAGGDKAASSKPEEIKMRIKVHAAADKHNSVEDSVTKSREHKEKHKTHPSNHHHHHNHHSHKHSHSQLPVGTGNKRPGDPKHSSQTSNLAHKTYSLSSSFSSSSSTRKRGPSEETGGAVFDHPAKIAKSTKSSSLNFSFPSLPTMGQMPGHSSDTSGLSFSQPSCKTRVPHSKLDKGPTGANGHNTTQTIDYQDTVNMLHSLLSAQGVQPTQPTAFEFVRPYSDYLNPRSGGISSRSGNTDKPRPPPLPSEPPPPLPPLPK
Excerpt: Cdk9/cyclinT1 IMAP Protocol
Fluorescence polarization (FP) is used for detection.
Cdk9/cyclinT1 Alpha Screen Protocol

Regarding `CS(=O)(=O)N[C@@H]1CC[C@@H](C(=O)Nc2cc(-c3cncc(NCC4CCOCC4)n3)c(Cl)cn2)C1` [Example 52, (1R,3R)-3-Methanesulfonylamino-cyclopentanecarboxylic acid (5-chloro-4-{6-[(tetrahydro-pyran-4-ylmethyl)-amino]-pyrazin-2-yl}-pyridin-2-yl)-amide], the IC50 (as a rule, the concentration that gives 50% inhibition) is less than 8 nM.
In the case of `CCS(=O)(=O)N1CCC[C@H](C(=O)Nc2cc(-c3cncc(NCC4CCOCC4)n3)c(C(F)(F)F)cn2)C1` [Example 66, (S)-1-Ethanesulfonyl-piperidine-3-carboxylic acid (4-{6-[(tetrahydro-pyran-4-ylmethyl)-amino]-pyrazin-2-yl}-5-trifluoromethyl-pyridin-2-yl)-amide], the half-inhibitory concentration (IC50) turned out to be 100 nM.
The molecule `O=C(Nc1cc(-c2cncc(NCC3CCOCC3)n2)c(Cl)cn1)C1CNCCO1` (stereo not drawn) [Example 21, Morpholine-2-carboxylic acid (5-chloro-4-{6-[(tetrahydro-pyran-4-ylmethyl)-amino]-pyrazin-2-yl}-pyridin-2-yl)-amide] returned an IC50 of 12.8 nM.
Regarding `C[C@@H](Nc1cncc(-c2cc(NC(=O)[C@@H]3CCCNC3)ncc2Cl)n1)C1CCCCC1` [Example 37, (R)-Piperidine-3-carboxylic acid {5-chloro-4-[6-((R)-1-cyclohexyl-ethylamino)-pyrazin-2-yl]-pyridin-2-yl}-amide], the IC50 is less than 8 nM.
Consider `O=C(Nc1cc(-c2cncc(NCC3CCOCC3)n2)c(Cl)cn1)[C@H]1CNC[C@H]1F` [Example 64, (3R,4S)-4-Fluoro-pyrrolidine-3-carboxylic acid (5-chloro-4-{6-[(tetrahydro-pyran-4-ylmethyl)-amino]-pyrazin-2-yl}-pyridin-2-yl)-amide], for which the IC50 is less than 8 nM.
In the case of `CS(=O)(=O)N[C@H]1CC[C@@H](C(=O)Nc2cc(-c3cncc(NCC4CCOCC4)n3)c(Cl)cn2)C1` [Example 51, (1R,3S)-3-Methanesulfonylamino-cyclopentanecarboxylic acid (5-chloro-4-{6-[(tetrahydro-pyran-4-ylmethyl)-amino]-pyrazin-2-yl}-pyridin-2-yl)-amide] it was less than 8 nM.
